Assay results: patent publication US20260297105A1, “RAF-MEK PROTEIN COMPLEX MODULATORS AND METHODS OF USE THEREOF” (GANDEEVA THERAPEUTICS, INC., priority 2023, published 2026)

How the values were obtained:
p-ERK1/2 in HCT116 cells = assay: AlphaLISA p-ERK assay, cellular inhibition of ERK phosphorylation in HCT116 cells; assay type: cell-based; conditions: Homo sapiens, HCT-116, 2 hours treatment, PMA stimulation 30 mins
Protocol: (§1) Cell culture: HCTI 16, HT-29, and NCI-H292 cells were acquired from American Type Culture Collection (ATCC). HCT116 and HT-29 cells were maintained in ATCC-formulated McCoy's 5a Medium Modified supplemented with 10% fetal bovine serum, NCI-H292 cells were cultured in ATCC formulated RPMI-1640 supplemented with 10% fetal bovine serum. All cells were maintained at 37° C., 5% CO2.
Efficacy of exemplary compounds in cellular inhibition of ERK phosphorylation: Phosphorylation status of ERK1/2 (p-ERK) was used as a readout for inhibition of BRAF-MEK pathway. p-ERK was detected using an immunoassay for quantitative detection of phospho-ERK 1/2 (phosphorylated on Thr202/Tyr204 in ERK1, or Thr185/Tyr187 in ERK2), such as the AlphaLISA® SureFire® Ultra™ p-ERK1/2 (Thr202/Tyr204) kit (Perkin Elmer). HCT116 cells were plated at 10,000 cells per well in 384-well TC-treated plates (Coming). Cells were plated for 24 hours, the medium was then aspirated and cells were treated with vehicle (DMSO) or test compounds (0.1% DMSO in final volume) prepared in serum free, phenol red free medium for 2 hours. Following treatment, cells were stimulated with PMA (1.25 μM/well) for 30 mins after which the medium was aspirated, and the cells were lysed for 10 mins with 1× lysis buffer supplemented with Halt Protease and Phosphatase Inhibitor Cocktail (Thermo Fisher). The lysate was transferred to a 384 well Alpha-plate (PerkinElmer) and incubated for 1 hour with acceptor bead mix followed by 1 hour incubation with donor bead mix. After incubation, the plate was read on a Cytation5 microplate reader (Agilent). % inhibition as a function of compound concentration from 3 replicate wells was fit with a 4-parameter logistic curve using GraphPad Prism or CDD Vault to derive IC50 values.
(§2) In this table, for the BRAF ADP Glo kinase assay, “A” indicates IC50 of less than 5 nM; “B” indicates IC50 of between 5 nM to 50 nM; and “C” indicates IC50 of between 50 nM to 500 nM. “D” indicates IC50 of greater than 500 nM. For the BRAF-MEK TR-FRET assay, “A” indicates EC50 of less than 50 nM; “B” indicates EC50 of between 50 nM to 200 nM; and “C” indicates EC50 of between 200 nM to 1 μM. “D′” indicates EC50 of greater than 1 μM. For the AlphaLisa P-ERK assay, “A” indicates IC50 of less than 1 nM; “B” indicates IC50 of between 1 nM to 10 nM; and “C” indicates IC50 of between 10 nM to 100 nM. “D” indicates IC50 of greater than 100 nM. For the cell viability assay, “A” indicates IC50 of less than 1 nM; “B” indicates IC50 of between 1 nM to 10 nM; and “C” indicates IC50 of between 10 nM to 100 nM. “D” indicates IC50 of greater than 100 nM.

MEK1 = target: T1, MEK1 (Homo sapiens, UniProt Q02750); assay: MEK1 kinase cascade assay (ADP-Glo), inhibition of MEK1 kinase activity; assay type: biochemical; conditions: 25 nM BRAF, 6.25 nM MEK1, 0.5 μM ERK, 1 mM ATP; 20 min preincubation, 1 hr at 25° C.; read-out: BRAF ADP Glo kinase assay V3 (IC50)
T1 construct: purchased SignalChem M02-14H
T1 sequence (Q02750 whole entry): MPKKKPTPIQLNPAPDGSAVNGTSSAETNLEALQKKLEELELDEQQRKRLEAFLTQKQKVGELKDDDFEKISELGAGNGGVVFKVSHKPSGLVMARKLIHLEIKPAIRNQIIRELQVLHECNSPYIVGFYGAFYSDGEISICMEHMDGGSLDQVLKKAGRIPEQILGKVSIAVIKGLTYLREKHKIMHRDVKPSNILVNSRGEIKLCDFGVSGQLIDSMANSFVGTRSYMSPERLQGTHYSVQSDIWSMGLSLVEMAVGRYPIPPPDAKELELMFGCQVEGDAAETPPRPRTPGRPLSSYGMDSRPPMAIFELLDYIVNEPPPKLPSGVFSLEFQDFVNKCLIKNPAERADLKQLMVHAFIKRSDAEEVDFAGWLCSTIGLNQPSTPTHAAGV
T1 sequence (P15056 445-723 partner limits assumed): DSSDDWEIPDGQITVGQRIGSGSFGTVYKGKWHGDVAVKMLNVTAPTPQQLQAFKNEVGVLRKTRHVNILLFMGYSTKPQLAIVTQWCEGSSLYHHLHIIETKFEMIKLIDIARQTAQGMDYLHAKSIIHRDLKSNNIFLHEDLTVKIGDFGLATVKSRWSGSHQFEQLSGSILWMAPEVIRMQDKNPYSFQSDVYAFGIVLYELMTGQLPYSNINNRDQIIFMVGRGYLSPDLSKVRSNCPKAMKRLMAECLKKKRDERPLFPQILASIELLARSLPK
Procedure, shortened: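 Compounds were preincubated 20 mins at 25° C with 25 nM BRAF(445-723) in 10 mM HEPES pH 7.5, 5 mM MgCl2, 2 mM CHAPS, 1 mM DTT, then 6.25 nM MEK1, 0.5 μM ERK1 and 1 mM ATP were added for 1 hr at 25° C, with 1% DMSO. ADP-Glo luminescence was normalized to DMSO and 1 μM Trametinib; IC50 came from 4-parameter fits of duplicates.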

BRAF-MEK1 = assay: BRAF-MEK TR-FRET assay, stabilization of MEK1 and BRAF interaction; assay type: binding; conditions: 4 nM BRAF, 10 nM MEK, 100 μM ATP; 1 hr at 25° C.; read-out: BRAF-MEK TR-FRET Assay (EC50, fold stabilization)
Procedure, shortened: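 His-MEK1 (full-length, E. coli) at 10 nM with GST-BRAF at 4 nM, 1 h at 25° C in pH 7.5 Tris buffer with 5 mM MgCl2 and 100 μM ATP; anti-His-Tb/anti-GST-XL665 added for 1 h more. 665/620 FRET ratio over DMSO gives fold stabilization; EC50 from 4-parameter fit, duplicate wells.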

NCI-H292 cells = assay: Cell viability assay (CellTiter-Glo), NCI-H292; assay type: cell-based; conditions: Homo sapiens, 72 hrs, read-out: Cell Viability Assay: IC50 Determination NCI-H292
Protocol: as §1
Efficacy of exemplary compounds in inhibition of cell viability: HCT116 and HT-29 cells were plated at 4,000 cells per well and NCI-H292 cells were plated at 2,000 cells per well in their respective media in 384-well white, TC-treated plates (Corning). After 24 hours of incubation, the cells were treated with vehicle (DMSO) or test compounds (0.1% DMSO in final volume) for 72 hrs. The plate was equilibrated at room temperature for 10 mins followed by addition of a 1:1 volume of CellTiter-Glo® reagent (Promega). The contents were mixed for 2 mins on an orbital shaker to induce lysis. The plate was incubated at room temperature for 10 mins to stabilize luminescent signal before measuring luminescence on a Cytation5 microplate reader (Agilent). % inhibition as a function of compound concentration from 3 replicate wells was fit with a 4-parameter logistic curve using GraphPad Prism or CDD Vault to derive IC50 values.
as §2

Compound | IC50 (p-ERK1/2 in HCT116 cells) [nM] | IC50 (MEK1) [nM] | EC50 (BRAF-MEK1) [nM] | IC50 (NCI-H292 cells) [nM]
CNS(=O)(=O)Nc1cccc(CN2C(=O)Oc3c(ccc(Oc4cccnn4)c3F)[C@@H]2C)c1F (single isomer, unassigned) [Compound 35] | 10 to 100 | < 5 | 50 to 200 | 10 to 100
CNS(=O)(=O)Nc1cccc(CN2C(=O)Oc3cc(Oc4cccnn4)cc(F)c3[C@H]2C)c1F (single isomer, unassigned) [Compound 57] | 1 to 10 | 5 to 50 | 50 to 200 | 1 to 10
CNS(=O)(=O)Nc1cccc(CN2C(=O)Oc3cc(Oc4cccnn4)c(F)cc3[C@@H]2C)c1F (single isomer, unassigned) [Compound 66] | 1 to 10 | < 5 | 200 to 1000 | 1 to 10
CNS(=O)(=O)Nc1cccc(CN2C(=O)Oc3cc(Oc4cccnn4)c(F)cc3[C@H]2C)c1F (single isomer, unassigned) [Compound 67] | 1 to 10 | 5 to 50 | 200 to 1000 | 1 to 10
CNS(=O)(=O)Nc1cccc(CN2C(=O)Oc3cc(Oc4cccnn4)ccc3[C@H]2C)c1F (single isomer, unassigned) [Compound 71] | 10 to 100 | 5 to 50 | 200 to 1000 | 1 to 10
CNS(=O)(=O)Nc1cccc(CN2C(=O)Oc3cc(Oc4cccnn4)ccc3[C@@H]2C)c1F (single isomer, unassigned) [Compound 72, (R)-3-({2-fluoro-3-(methylsulfamoyl)amino]phenyl}methyl)-4-methyl-7-(pyridazin-3-yloxy)-3,4-dihydro-2H-1,3-benzoxazin-2-one or (S)-3-({2-fluoro-3-(methylsulfamoyl)amino]phenyl}methyl)-4-methyl-7-(pyridazin-3-yloxy)-3,4-dihydro-2H-1,3-benzoxazin-2-one] | 1 to 10 | 5 to 50 | 50 to 200 | 1 to 10
CN(C)S(=O)(=O)Nc1cccc(CN2C(=O)Oc3c(ccc(Oc4cccnn4)c3F)C23COC3)c1F [Compound 40, 3-({3-[(dimethylsulfamoyl)amino]-2-fluorophenyl}methyl)-8-fluoro-7-(pyridazin-3-yloxy)-2,3-dihydrospiro[1,3-benzoxazine-4,3′-oxetan]-2-one] | 10 to 100 | 5 to 50 | 50 to 200 | 1 to 10
CNS(=O)(=O)Nc1cccc(CN2C(=O)Oc3cc(Oc4cccnn4)ccc3C23CCC3)c1F [Compound 41, 3-({2-fluoro-3-[(methylsulfamoyl)amino]phenyl}methyl)-7-(pyridazin-3-yloxy)-2,3-dihydrospiro[1,3-benzoxazine-4,1′-cyclobutan]-2-one] | 1 to 10 | < 5 | < 50 | 1 to 10
CNS(=O)(=O)Nc1cccc(CN2C(=O)Oc3c(ccc(Oc4cccnn4)c3F)C23COC3)c1F [Compound 42] | 1 to 10 | < 5 | 50 to 200 | 1 to 10
[2H]C1([2H])c2ccc(Oc3cccnn3)cc2OC(=O)N1Cc1cccc(NS(=O)(=O)NC)c1F [Compound 52, 3-{[2-fluoro-3-(methylaminosulfonylamino)phenyl]methyl}-7-(3-pyridazinyloxy)(4,4-^2H2)-3,4-dihydro-2H-1,3-benzoxazin-2-one] | 1 to 10 | 5 to 50 | 50 to 200 | 1 to 10
O=C1Oc2cc(Oc3cccnn3)c(F)cc2C2(COC2)N1Cc1cccc(NS(=O)(=O)C2CC2)c1F [Compound 53, N-(2-fluoro-3-{[6-fluoro-2-oxo-7-(pyridazin-3-yloxy)-2,3-dihydrospiro[1,3-benzoxazine-4,3′-oxetan]-3-yl]methyl}phenyl)cyclopropanesulfonamide] | 10 to 100 | 5 to 50 | 50 to 200 | 1 to 10
O=C1Oc2cc(Oc3cccnn3)ccc2C2(COC2)N1Cc1cccc(NS(=O)(=O)C2CC2)c1F [Compound 59, N-(2-fluoro-3-{[2-oxo-7-(pyridazin-3-yloxy)-2,3-dihydrospiro[1,3-benzoxazine-4,3′-oxetan]-3-yl]methyl}phenyl)cyclopropanesulfonamide] | 1 to 10 | 5 to 50 |  | 1 to 10
O=C1Oc2cc(Oc3ccccn3)ccc2CN1Cc1cccc(NS(=O)(=O)C2CC2)c1F [Compound 62, N-(2-fluoro-3-((2-oxo-7-(pyridin-2-yloxy)-2H-benzo[e][1,3]oxazin-3(4H)-yl)methyl)phenyl)cyclopropanesulfonamide] | > 100 | 5 to 50 |  | > 100
CNS(=O)(=O)Nc1cccc(CN2Cc3ccc(Oc4ccccn4)cc3OC2=O)c1F [Compound 65, 3-({2-fluoro-3-[(methylsulfamoyl)amino]phenyl}methyl)-7-(pyridin-2-yloxy)-3,4-dihydro-2H-1,3-benzoxazin-2-one] | 10 to 100 | < 5 |  | 10 to 100
CNS(=O)(=O)Nc1cccc(CN2Cc3ccc(C(F)(F)C(=O)N(C)C)cc3OC2=O)c1F [Compound 133] | 10 to 100 | 5 to 50 |  | 10 to 100
CNS(=O)(=O)Nc1cccc(CN2Cc3cc(Cl)c(Oc4ncccn4)cc3OC2=O)c1F [Compound 148, 6-chloro-3-({2-fluoro-3-[(methylsulfamoyl)amino]phenyl}methyl)-7-(pyrimidin-2-yloxy)-3,4-dihydro-2H-1,3-benzoxazin-2-one] | 10 to 100 | 5 to 50 |  | 10 to 100
O=C1Oc2cc(Oc3nccnn3)ccc2C2(CCC2)N1Cc1ccnc(NS(=O)(=O)C2CC2)c1F [Compound 161, (cyclopropylsulfonyl)[3-fluoro-4-({2-oxo-7-(1,2,4-triazin-3-yloxy)-2H,3H-spiro[1,3-benzoxazine-4,1′-cyclobutan]-3-yl}methyl)-2-pyridyl]amine] | 10 to 100 |  | 50 to 200 | 1 to 10
CNS(=O)(=O)Nc1nccc(CN2Cc3ccc(Oc4ncco4)cc3OC2=O)c1F [Compound 162, 3-{[3-fluoro-2-(methylaminosulfonylamino)-4-pyridyl]methyl}-7-(1,3-oxazol-2-yloxy)-3,4-dihydro-2H-1,3-benzoxazin-2-one] | 10 to 100 |  | 50 to 200 | 1 to 10
